Measured values: patent US20180139987A1, “PHARMACEUTICAL POWDER COMPOSITION AND ITS USE IN THE CONTROL OF POST-PRANDIAL GLYCAEMIC PROFILE” (OMNIBLEND INNOVATION PTY LTD, priority 2015, published 2018)

Tests used:
[1] = test system: subject with type 2 diabetes; assay: Post-prandial glycemic profile (finger-prick blood sugar) after white rice breakfast, subjects with type 2 diabetes; format: in vivo, human
Description: 160 g microwaveable white rice (details, amount of available carbohydrate?) was eaten together with a cup of water.
240 g microwaveable white rice (Uncle Bens Brand Microwavable White Rice, […] of available carbohydrate) and 200 ml of hot tea.
Finger-prick blood sugar readings were taken before consumption of the standard meal in the morning (i.e. the standard meal was breakfast). Two readings were taken and the average value was used as the blood sugar reading. After consumption of the meal, another blood sugar reading was taken. Further blood sugar readings were taken at 15-minute intervals thereafter.
A subject with type 2 diabetes (T2D1, person) was given a standard white rice breakfast (Example A2) and was tested for post-prandial glycemic profile—this was the first control glycemic profile. […] This was the third control glycemic profile. […] This was the test glycemic profile. […]
A subject with type 2 diabetes (T2D5, person) was given a standard white rice breakfast (Example A2) and was tested for post-prandial glycemic profile—this was the first control glycemic profile. […] This was the third control glycemic profile. […] This was the test glycemic profile.
This was the second glycemic test profile.
This was the second test glycemic profile.
This was the first glycemic test profile.

Healthy Participant = assay: Post-prandial glycemic profile (finger-prick blood sugar) after white rice breakfast, healthy participant; format: in vivo, human; conditions: HP2 healthy participant, 125 g white rice
Text: 125 g microwaveable white rice (details, amount of available carbohydrate?) was eaten together with a cup of water. Finger-prick blood sugar readings were taken before consumption of the standard meal in the morning (i.e. the standard meal was breakfast). Two readings were taken and the average value was used as the blood sugar reading. After consumption of the meal, another blood sugar reading was taken. Further blood sugar readings were taken at 15-minute intervals thereafter. A subject (HP2, Healthy Participant) was given a standard white rice breakfast, containing 125 g cooked white rice (example A3), and was tested for post-prandial glycemic profile-this was the first control glycemic profile. […] This was the third control glycemic profile. On another day, the same subject was given the acarbose-containing pre-meal drink described in example A1 (this drink is prepared according to the invention). This was the test glycemicsrofile.

patients = conditions: 1255 patients, Acarbose tablets 50-300 mg t.i.d.; cited from earlier work
[2] = test system: subject with type 2 diabetes; assay: Post-prandial glycemic profile (finger-prick blood sugar) after white bread breakfast, subjects with type 2 diabetes; format: in vivo, human
Text: 2 slices of thick-cut savoury white bread spread with 29 g jam (over both slices) were eaten together with a cup of tea or coffee. A total available carbohydrate per serve was 50 g. 2 slices of thick-cut savoury white bread spread with 29 g jam (over both slices) were eaten together with a cup of tea or coffee. […] A total available carbohydrate per serve was 50 g. Finger-prick blood sugar readings were taken before consumption of the standard meal in the morning (i.e. the standard meal was breakfast). Two readings were taken and the average value was used as the blood sugar reading. After consumption of the meal, another blood sugar reading was taken. Further blood sugar readings were taken at 15-minute intervals thereafter. […] This was the first glycemic test profile. […] This was the second glycemic test profile. […] This was the first test glycemic profile. […] This was the second glycemic test profile.

## C[C@H]1O[C@H](O[C@H]2[C@H](O)[C@@H](O)[C@@H](O[C@H]3[C@H](O)[C@@H](O)C(O)O[C@@H]3CO)O[C@@H]2CO)[C@H](O)[C@@H](O)[C@@H]1N[C@H]1C=C(CO)[C@@H](O)[C@H](O)[C@H]1O (stereo partly shown) [acarbose]
[1]; T2D1, 240 g white rice (Example B3), time after eating 30 min
  glycemic profile (mM blood glucose): 9.32 mM
[1]; T2D1, 240 g white rice (Example B3), time after eating 60 min
  glycemic profile (mM blood glucose): 10.4 mM
[1]; T2D1, 240 g white rice (Example B3), time after eating 75 min
  glycemic profile (mM blood glucose): 11.0 mM
[1]; T2D1, 240 g white rice (Example B3), time after eating 90 min
  glycemic profile (mM blood glucose): 10.8 mM
[1]; T2D1, 240 g white rice (Example B3), time after eating 105 min
  glycemic profile (mM blood glucose): 11 mM
[1]; T2D1, 240 g white rice (Example B3), time after eating 120 min
  glycemic profile (mM blood glucose): 10.4 mM
[1]; T2D1, 240 g white rice (Example B3), time after eating 135 min
  glycemic profile (mM blood glucose): 10.4 mM
[1]; T2D1, 240 g white rice (Example B3), time after eating 165 min
  glycemic profile (mM blood glucose): 9.45 mM
[1]; T2D1, 240 g white rice (Example B3), time after eating 180 min
  glycemic profile (mM blood glucose): 9.66 mM
[1]; T2D1, 240 g white rice (Example B3), time after eating −25 min
  glycemic profile (mM blood glucose): 7.3 mM
[1]; T2D1, 240 g white rice (Example B7), time after eating 30 min
  glycemic profile (mM blood glucose): 9.32 mM
[1]; T2D1, 240 g white rice (Example B7), time after eating 60 min
  glycemic profile (mM blood glucose): 10.4 mM
[1]; T2D1, 240 g white rice (Example B7), time after eating 75 min
  glycemic profile (mM blood glucose): 11.0 mM
[1]; T2D1, 240 g white rice (Example B7), time after eating 90 min
  glycemic profile (mM blood glucose): 10.8 mM
[1]; T2D1, 240 g white rice (Example B7), time after eating 105 min
  glycemic profile (mM blood glucose): 11 mM
[1]; T2D1, 240 g white rice (Example B7), time after eating 120 min
  glycemic profile (mM blood glucose): 10.4 mM
[1]; T2D1, 240 g white rice (Example B7), time after eating 135 min
  glycemic profile (mM blood glucose): 10.4 mM
[1]; T2D1, 240 g white rice (Example B7), time after eating 165 min
  glycemic profile (mM blood glucose): 9.45 mM
[1]; T2D1, 240 g white rice (Example B7), time after eating 180 min
  glycemic profile (mM blood glucose): 9.66 mM
[1]; T2D1, 240 g white rice (Example B7), time after eating −25 min
  glycemic profile (mM blood glucose): 7.3 mM
[1]; T2D1, standard white rice breakfast (Example A2, 160 g), time after eating 45 min
  glycemic profile (mM blood glucose): 9.6 mM
[1]; T2D1, standard white rice breakfast (Example A2, 160 g), time after eating 60 min
  glycemic profile (mM blood glucose): 9.8 mM
[1]; T2D1, standard white rice breakfast (Example A2, 160 g), time after eating 75 min
  glycemic profile (mM blood glucose): 9.6 mM
[1]; T2D1, standard white rice breakfast (Example A2, 160 g), time after eating 90 min
  glycemic profile (mM blood glucose): 10.9 mM
[1]; T2D1, standard white rice breakfast (Example A2, 160 g), time after eating 105 min
  glycemic profile (mM blood glucose): 9.65 mM
[1]; T2D1, standard white rice breakfast (Example A2, 160 g), time after eating 120 min
  glycemic profile (mM blood glucose): 10.25 mM
[1]; T2D1, standard white rice breakfast (Example A2, 160 g), time after eating 135 min
  glycemic profile (mM blood glucose): 9.82 mM
[1]; T2D1, standard white rice breakfast (Example A2, 160 g), time after eating 150 min
  glycemic profile (mM blood glucose): 9.26 mM
[1]; T2D5, 240 g white rice (Example B2), time after eating 0 min
  glycemic profile (mM blood glucose): 7.4 mM
[1]; T2D5, 240 g white rice (Example B2), time after eating 30 min
  glycemic profile (mM blood glucose): 10.4 mM
[1]; T2D5, 240 g white rice (Example B2), time after eating 45 min
  glycemic profile (mM blood glucose): 10.1 mM
[1]; T2D5, 240 g white rice (Example B2), time after eating 60 min
  glycemic profile (mM blood glucose): 9.7 mM
[1]; T2D5, 240 g white rice (Example B2), time after eating 75 min
  glycemic profile (mM blood glucose): 9.95 mM
[1]; T2D5, 240 g white rice (Example B2), time after eating 165 min
  glycemic profile (mM blood glucose): 7.3 mM
[1]; T2D5, 240 g white rice (Example B2), time after eating 180 min
  glycemic profile (mM blood glucose): 6.5 mM
[1]; T2D5, 240 g white rice (Example B2), time after eating −10 min
  glycemic profile (mM blood glucose): 5.2 mM
[1]; T2D5, 240 g white rice (Example B2), time after eating −25 min
  glycemic profile (mM blood glucose): 5 mM
[1]; T2D5, 240 g white rice (Example B6), time after eating 0 min
  glycemic profile (mM blood glucose): 7.4 mM
[1]; T2D5, 240 g white rice (Example B6), time after eating 30 min
  glycemic profile (mM blood glucose): 10.4 mM
[1]; T2D5, 240 g white rice (Example B6), time after eating 45 min
  glycemic profile (mM blood glucose): 10.15 mM
[1]; T2D5, 240 g white rice (Example B6), time after eating 60 min
  glycemic profile (mM blood glucose): 9.76 mM
[1]; T2D5, 240 g white rice (Example B6), time after eating 75 min
  glycemic profile (mM blood glucose): 9.95 mM
[1]; T2D5, 240 g white rice (Example B6), time after eating 165 min
  glycemic profile (mM blood glucose): 7.3 mM
[1]; T2D5, 240 g white rice (Example B6), time after eating 180 min
  glycemic profile (mM blood glucose): 6.5 mM
[1]; T2D5, 240 g white rice (Example B6), time after eating −10 min
  glycemic profile (mM blood glucose): 5.2 mM
[1]; T2D5, 240 g white rice (Example B6), time after eating −25 min
  glycemic profile (mM blood glucose): 5 mM
[1]; T2D5, 240 g white rice, baselines of both profiles matched
  peak glucose height, rise above baseline: 5.3 mmol/L
Healthy Participant; time after eating 0 min
  glycemic profile (mM blood glucose): 6.03 mM
Healthy Participant; time after eating 15 min
  glycemic profile (mM blood glucose): 6.4 mM
Healthy Participant; time after eating 30 min
  glycemic profile (mM blood glucose): 7.04 mM
Healthy Participant; time after eating 45 min
  glycemic profile (mM blood glucose): 6.75 mM
Healthy Participant; time after eating 60 min
  glycemic profile (mM blood glucose): 5.9 mM
Healthy Participant; time after eating 75 min
  glycemic profile (mM blood glucose): 6.1 mM
Healthy Participant; time after eating 90 min
  glycemic profile (mM blood glucose): 6.175 mM
Healthy Participant; time after eating 105 min
  glycemic profile (mM blood glucose): 5.8 mM
Healthy Participant; time after eating 120 min
  glycemic profile (mM blood glucose): 6.3 mM
Healthy Participant; time after eating 135 min
  glycemic profile (mM blood glucose): 6.23 mM
Healthy Participant; time after eating −15 min
  glycemic profile (mM blood glucose): 5.65 mM
patients
  incidence of abdominal pain: 19%
  incidence of diarrhea: 31%
  incidence of flatulence: 74%
[2]; T2D5, 2 slices white bread + 29 g jam (Example B4), time after eating 0 min
  glycemic profile (mM blood glucose): 8.5 mM
[2]; T2D5, 2 slices white bread + 29 g jam (Example B4), time after eating 15 min
  glycemic profile (mM blood glucose): 9.3 mM
[2]; T2D5, 2 slices white bread + 29 g jam (Example B4), time after eating 30 min
  glycemic profile (mM blood glucose): 9.5 mM
[2]; T2D5, 2 slices white bread + 29 g jam (Example B4), time after eating 45 min
  glycemic profile (mM blood glucose): 9.65 mM
[2]; T2D5, 2 slices white bread + 29 g jam (Example B4), time after eating 60 min
  glycemic profile (mM blood glucose): 9.85 mM
[2]; T2D5, 2 slices white bread + 29 g jam (Example B4), time after eating 75 min
  glycemic profile (mM blood glucose): 9.6 mM
[2]; T2D5, 2 slices white bread + 29 g jam (Example B4), time after eating 90 min
  glycemic profile (mM blood glucose): 9.8 mM
[2]; T2D5, 2 slices white bread + 29 g jam (Example B4), time after eating 105 min
  glycemic profile (mM blood glucose): 9.35 mM
[2]; T2D5, 2 slices white bread + 29 g jam (Example B4), time after eating 120 min
  glycemic profile (mM blood glucose): 9.05 mM
[2]; T2D5, 2 slices white bread + 29 g jam (Example B4), time after eating 135 min
  glycemic profile (mM blood glucose): 7.65 mM
[2]; T2D5, 2 slices white bread + 29 g jam (Example B4), time after eating 150 min
  glycemic profile (mM blood glucose): 6.93 mM
[2]; T2D5, 2 slices white bread + 29 g jam (Example B4), time after eating 165 min
  glycemic profile (mM blood glucose): 6.55 mM
[2]; T2D5, 2 slices white bread + 29 g jam (Example B4), time after eating 180 min
  glycemic profile (mM blood glucose): 5.35 mM
[2]; T2D5, 2 slices white bread + 29 g jam (Example B4), time after eating −10 min
  glycemic profile (mM blood glucose): 6.5 mM
[2]; T2D5, 2 slices white bread + 29 g jam (Example B4), time after eating −25 min
  glycemic profile (mM blood glucose): 6.25 mM
[2]; T2D9, 2 slices white bread + 29 g jam (Example B5), time after eating 0 min
  glycemic profile (mM blood glucose): 11.8 mM
[2]; T2D9, 2 slices white bread + 29 g jam (Example B5), time after eating 15 min
  glycemic profile (mM blood glucose): 12.8 mM
[2]; T2D9, 2 slices white bread + 29 g jam (Example B5), time after eating 30 min
  glycemic profile (mM blood glucose): 11.6 mM
[2]; T2D9, 2 slices white bread + 29 g jam (Example B5), time after eating 45 min
  glycemic profile (mM blood glucose): 11.3 mM
[2]; T2D9, 2 slices white bread + 29 g jam (Example B5), time after eating 60 min
  glycemic profile (mM blood glucose): 11.4 mM
[2]; T2D9, 2 slices white bread + 29 g jam (Example B5), time after eating 75 min
  glycemic profile (mM blood glucose): 11.1 mM
[2]; T2D9, 2 slices white bread + 29 g jam (Example B5), time after eating 90 min
  glycemic profile (mM blood glucose): 10.4 mM
[2]; T2D9, 2 slices white bread + 29 g jam (Example B5), time after eating 105 min
  glycemic profile (mM blood glucose): 11.0 mM
[2]; T2D9, 2 slices white bread + 29 g jam (Example B5), time after eating 120 min
  glycemic profile (mM blood glucose): 11.8 mM
[2]; T2D9, 2 slices white bread + 29 g jam (Example B5), time after eating 135 min
  glycemic profile (mM blood glucose): 11.2 mM
[2]; T2D9, 2 slices white bread + 29 g jam (Example B5), time after eating 150 min
  glycemic profile (mM blood glucose): 11.8 mM
[2]; T2D9, 2 slices white bread + 29 g jam (Example B5), time after eating 165 min
  glycemic profile (mM blood glucose): 12.9 mM
[2]; T2D9, 2 slices white bread + 29 g jam (Example B5), time after eating 180 min
  glycemic profile (mM blood glucose): 10.2 mM
[2]; T2D9, 2 slices white bread + 29 g jam (Example B5), time after eating −10 min
  glycemic profile (mM blood glucose): 9.9 mM
[2]; T2D9, 2 slices white bread + 29 g jam (Example B5), time after eating −25 min
  glycemic profile (mM blood glucose): 10.4 mM
